US12383539B2 (Cavion, Inc., priority 2018, dated 2025)

Assays:
[1] = tested on: patients with essential tremor; assay: T-CALM: TETRAS performance subscale (TETRAS-PS); conditions: for TETRAS-PS total score, change from baseline to Day 28, LS mean difference from placebo (95% CI) / TETRAS-PS total score, change from baseline to Day 28, LS mean (SE): ANCOVA; for TETRAS-PS total score, change from baseline to Day 28, LS mean (SE): multiple imputation
[2] = tested on: patients with essential tremor; assay: T-CALM: TETRAS activities of daily living subscale (TETRAS-ADL); type: in vivo, human; conditions: for TETRAS-ADL score (change from baseline), Mean (SD) / TETRAS-ADL score (change from baseline), Median / TETRAS-ADL score (change from baseline), Median (minimum, maximum): post-hoc
Excerpt: The sum of the individual scores provides the overall score, ranging from 0 to 48. The complete TETRAS ADL Subscale is as follows.
Rate tremor's impact on activities of daily living (0-4 scoring).
• 0=Normal. • 1=Slight voice tremulousness, only when “nervous”. • 2=Mild voice tremor. All words easily understood. • 3=Moderate voice tremor. Some words difficult to understand. • 4=Severe voice tremor. Most words difficult to understand. 2. Feeding with a Spoon • 0=Normal. • 1=Slightly abnormal. […] Spills a little. • 3=Moderately abnormal. Spills a lot or changes strategy to complete task such as using two hands or leaning over. • 4=Severely abnormal. Cannot feed with a spoon. 3. Drinking from a Glass • 0=Normal. • 1=Slightly abnormal. […] Spills a little. • 3=Moderately abnormal. Spills a lot or changes strategy to complete task such as using two, hands or leaning over. • 4=Severely abnormal. Cannot drink from a glass or uses straw or sippy cup. 4. Hygiene • 0=Normal. • 1=Slightly abnormal. […] Some difficulty but can complete task. • 3=Moderately abnormal. Unable to do most fine tasks such as putting on lipstick or shaving unless changes strategy such as using two hands or using the less affected hand. 4=Severely abnormal. Cannot complete hygiene tasks independently. 5. Dressing • 0=Normal. • 1=Slightly abnormal. […] Able to do everything but has difficulty due to tremor. • 3=Moderately abnormal. Unable to do most dressing unless changes strategy such as using Velcro, buttoning shirt before putting it on or avoiding shoes with laces. • 4=Severely abnormal. Cannot dress independently. 6. Pouring • 0=Normal. • 1=Slightly abnormal. […] Must be very careful to avoid spilling but may spill occasionally. • 3=Moderately abnormal. Must use two hands or uses other strategies to avoid spilling. • 4=Severely abnormal. Cannot pour. 7. Carrying Food Trays, Plates or Similar Items • 0=Normal. • 1=Slightly abnormal. […] Must be very careful to avoid spilling items on food tray. • 3=Moderately abnormal. Uses strategies such as holding tightly against body to carry. • 4=Severely abnormal. Cannot carry food trays or similar items. 8. Using Keys • 0=Normal. • 1=Slightly abnormal. Tremor is present but can insert key with one hand without difficulty. • 2=Mildly abnormal. Commonly misses target but still routinely puts key in lock with one hand. • 3=Moderately abnormal. Needs to use two hands or other strategies to put key in lock. • 4=Severely abnormal. Cannot put key in lock. 9. Writing • 0=Normal. • 1=Slightly abnormal. […] Difficulty writing due to tremor. • 3=Moderately abnormal. Cannot write without using strategies such as holding the writing hand with the other hand, holding pen differently or using large pen. • 4=Severely abnormal. Cannot write. 10. Working. If Patient is Retired, Ask as if they were Still Working. If the Patient is a Housewife, Ask the Question as it Relates to Housework: • 0=Normal. • 1=Slightly abnormal. […] Tremor interferes with work; able to do everything, but with errors. • 3=Moderately abnormal. Unable to continue working without using strategies such as changing jobs or using special equipment. • 4=Severely abnormal. Cannot perform any job or household work. 11. Overall Disability with the Most Affect Task (Name Task, e.g. Using Computer Mouse, Writing, Etc.) • Task ______ • 0=Normal. • 1=Slightly abnormal. […] Tremor interferes with task but still able to perform task. • 3=Moderately abnormal. Can do task but must use strategies. • 4=Severely abnormal. Cannot do the task. 12.
Analyses of the TETRAS-ADL was conducted using the same type of ANCOVA model as described for the TETRAS-PS, using two-sided tests at the alpha=0.05 level of significance (FIG. 2 and Table 2).

[3] = tested on: patients with essential tremor; assay: PK/PD: Cmin exposure of CX-8998 vs change in TETRAS-PS (Hill equation); type: in vivo, human; conditions: steady state
Excerpt: Pharmacodynamic variables (Response) evaluated included change from baseline in TETRAS performance subscale, TETRAS activities of daily living, TETRAS total score.

[4] = patients Minimally Improved by CGI-I, Day 15
[5] = patients Minimally Improved by CGI-I, Day 28
[6] = patients Minimally Improved by PGIC, Day 15
[7] = patients Minimally Improved by PGIC, Day 28

CC(C)c1ccc(CC(=O)N[C@H](C)c2ccc(OCC(F)(F)F)cn2)cc1 [CX-8998]
responders: improvement of at least 5 points by TETRAS-PS score, % ([1]; Day 15): (30.8%) | TETRAS-PS change from baseline 0 change: subjects, number (%) ([1]; Day 15, N = 39): 2 (5.1%) | TETRAS-PS change from baseline >0 to 1 point improvement: subjects, number (%) ([1]; Day 15, N = 39): 3 (7.7%) | TETRAS-PS change from baseline >0 to 1 point worsening: subjects, number (%) ([1]; Day 15, N = 39): 2 (5.1%) | TETRAS-PS change from baseline >1 to 2.5 point improvement: subjects, number (%) ([1]; Day 15, N = 39): 4 (10.3%) | TETRAS-PS change from baseline >1 to 2.5 point worsening: subjects, number (%) ([1]; Day 15, N = 39): 5 (12.8%) | TETRAS-PS change from baseline >2.5 to 5 point improvement: subjects, number (%) ([1]; Day 15, N = 39): 10 (25.6%) | TETRAS-PS change from baseline >2.5 to 5 point worsening: subjects, number (%) ([1]; Day 15, N = 39): 2 (5.1%) | TETRAS-PS change from baseline >5 to 10 point improvement: subjects, number (%) ([1]; Day 15, N = 39): 8 (20.5%) | TETRAS-PS change from baseline >5 to 10 point worsening: subjects, number (%) ([1]; Day 15, N = 39): 0 | TETRAS-PS change from baseline >10 point improvement: subjects, number (%) ([1]; Day 15, N = 39): 3 (7.7%) | TETRAS-PS change from baseline >10 point worsening: subjects, number (%) ([1]; Day 15, N = 39): 0 | responders: improvement of at least 5 points by TETRAS-PS score, % ([1]; Day 28): (43.2%) | responders: improvement of at least 5 points by TETRAS-PS score, number ([1]; Day 28, N 37): 16 | TETRAS-PS change from baseline 0 change: subjects, number (%) ([1]; Day 28, N = 37): 1 (2.6%) | TETRAS-PS change from baseline >0 to 1 point improvement: subjects, number (%) ([1]; Day 28, N = 37): 6 (15.4%) | TETRAS-PS change from baseline >0 to 1 point worsening: subjects, number (%) ([1]; Day 28, N = 37): 2 (5.1%) | TETRAS-PS change from baseline >1 to 2.5 point improvement: subjects, number (%) ([1]; Day 28, N = 37): 5 (12.8%) | TETRAS-PS change from baseline >1 to 2.5 point worsening: subjects, number (%) ([1]; Day 28, N = 37): 1 (2.6%) | TETRAS-PS change from baseline >2.5 to 5 point improvement: subjects, number (%) ([1]; Day 28, N = 37): 11 (28.2%) | TETRAS-PS change from baseline >2.5 to 5 point worsening: subjects, number (%) ([1]; Day 28, N = 37): 1 (2.6%) | TETRAS-PS change from baseline >5 to 10 point improvement: subjects, number (%) ([1]; Day 28, N = 37): 8 (20.5%) | TETRAS-PS change from baseline >5 to 10 point worsening: subjects, number (%) ([1]; Day 28, N = 37): 0 | TETRAS-PS change from baseline >10 point improvement: subjects, number (%) ([1]; Day 28, N = 37): 4 (10.3%) | TETRAS-PS change from baseline >10 point worsening: subjects, number (%) ([1]; Day 28, N = 37): 0 | TETRAS-PS scored by investigators (in person), change from baseline, LS mean (±SE) ([1]; Day 28, analysis of Example 25): −4.8±0.80 | TETRAS-PS scored by independent video raters, change from baseline, LS mean (±SE) ([1]; Day 28, primary endpoint): −1.8±0.81 | TETRAS-PS total score, Mean (SD) ([1]; Day 28, Investigator Rated): 23.6 (5.50) | TETRAS-PS total score, change from baseline to Day 28, Mean (SD) ([1]; Independent Video Raters): −1.6 (4.36) | TETRAS-PS total score, change from baseline to Day 28, Median ([1]; Independent Video Raters): −1.5 | TETRAS-PS total score, change from baseline to Day 28, LS mean difference from placebo (95% CI) ([1]; Independent Video Raters): 0.5 (−1.5, 2.5) | TETRAS-PS total score, change from baseline to Day 28, LS mean (SE) ([1]; Independent Video Raters): −1.8 (0.81) | TETRAS-PS total score, change from baseline to Day 28, LS mean difference from placebo (95% CI) ([1]; Investigator Rated): −2.0 (−4.0, 0.0) | TETRAS-PS total score, change from baseline to Day 28, LS mean (SE) ([1]; Investigator Rated): −4.8 (0.80) | TETRAS-PS total score, change from baseline to Day 28, Mean (SD) ([1]; subgroup No Concurrent Tremor Medication at Day 1, Independent Video Raters): −2.5 (5.33) | responders: improvement of at least 5 points by TETRAS-ADL score, % ([2]; Day 15): (46.2%) | responders: improvement of at least 5 points by TETRAS-ADL score, number ([2]; Day 15, N 39): 18 | TETRAS-ADL change from baseline 0 change: subjects, number (%) ([2]; Day 15, N = 39): 2 (5.1%) | TETRAS-ADL change from baseline >0 to 1 point improvement: subjects, number (%) ([2]; Day 15, N = 39): 5 (12.8%) | TETRAS-ADL change from baseline >0 to 1 point worsening: subjects, number (%) ([2]; Day 15, N = 39): 1 (2.6%) | TETRAS-ADL change from baseline >1 to 2.5 point improvement: subjects, number (%) ([2]; Day 15, N = 39): 2 (5.1%) | TETRAS-ADL change from baseline >1 to 2.5 point worsening: subjects, number (%) ([2]; Day 15, N = 39): 3 (7.7%) | TETRAS-ADL change from baseline >2.5 to 5 point improvement: subjects, number (%) ([2]; Day 15, N = 39): 7 (17.9%) | TETRAS-ADL change from baseline >2.5 to 5 point worsening: subjects, number (%) ([2]; Day 15, N = 39): 3 (7.7%) | TETRAS-ADL change from baseline >5 to 10 point improvement: subjects, number (%) ([2]; Day 15, N = 39): 11 (28.2%) | TETRAS-ADL change from baseline >5 to 10 point worsening: subjects, number (%) ([2]; Day 15, N = 39): 0 | TETRAS-ADL change from baseline >10 point improvement: subjects, number (%) ([2]; Day 15, N = 39): 5 (12.8%) | TETRAS-ADL change from baseline >10 point worsening: subjects, number (%) ([2]; Day 15, N = 39): 0 | responders: improvement of at least 5 points by TETRAS-ADL score, % ([2]; Day 28): (29.7%) | responders: improvement of at least 5 points by TETRAS-ADL score, number ([2]; Day 28, N 37): 11 | TETRAS-ADL change from baseline 0 change: subjects, number (%) ([2]; Day 28, N = 37): 5 (13.5%) | TETRAS-ADL change from baseline >0 to 1 point improvement: subjects, number (%) ([2]; Day 28, N = 37): 2 (5.4%) | TETRAS-ADL change from baseline >0 to 1 point worsening: subjects, number (%) ([2]; Day 28, N = 37): 3 (8.1%) | TETRAS-ADL change from baseline >1 to 2.5 point improvement: subjects, number (%) ([2]; Day 28, N = 37): 3 (8.1%) | TETRAS-ADL change from baseline >1 to 2.5 point worsening: subjects, number (%) ([2]; Day 28, N = 37): 3 (8.1%) | TETRAS-ADL change from baseline >2.5 to 5 point improvement: subjects, number (%) ([2]; Day 28, N = 37): 7 (18.9%) | TETRAS-ADL change from baseline >2.5 to 5 point worsening: subjects, number (%) ([2]; Day 28, N = 37): 3 (8.1%) | TETRAS-ADL change from baseline >5 to 10 point improvement: subjects, number (%) ([2]; Day 28, N = 37): 6 (16.2) | TETRAS-ADL change from baseline >5 to 10 point worsening: subjects, number (%) ([2]; Day 28, N = 37): 0 | TETRAS-ADL change from baseline >10 point improvement: subjects, number (%) ([2]; Day 28, N = 37): 5 (13.5%) | TETRAS-ADL change from baseline >10 point worsening: subjects, number (%) ([2]; Day 28, N = 37): 0 | TETRAS-ADL score (change from baseline), Mean (SD) [2, 4]: −3.7 (4.21) | TETRAS-ADL score (change from baseline), Median [2, 4]: −2.0 | TETRAS-ADL score (change from baseline), Mean (SD) [2, 5]: −4.4 (8.10) | TETRAS-ADL score (change from baseline), Median (minimum, maximum) [2, 5]: −1.0 (−24, 3) | TETRAS-ADL score (change from baseline), Mean (SD) [2, 6]: −3.3 (4.27) | TETRAS-ADL score (change from baseline), Median [2, 6]: −4.0 | TETRAS-ADL score (change from baseline), Mean (SD) [2, 7]: −1.6 (3.84) | TETRAS-ADL score (change from baseline), Median (minimum, maximum) [2, 7]: −1.0 (−7, 3) | Emax, change from baseline in TETRAS-PS (Hill equation) [3]: approximately −4.1
